Experimental data taken from ChEMBL document CHEMBL1201862, “PubChem BioAssay data set” (2004).
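Five compound concentrations were applied to cells in 96-well plates for 48 hours; endpoints were derived by simple linear interpolation of the resulting dose-response curve. GI50: concentration for 50% inhibition of growth.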 Active and inactive are the calls of the source. Cut-off read from the data, not from the text of the source: active = GI50 up to about 1.1 µM and inactive = higher.

Tests used:
Assay in all cases: growth of human tumour cells (NCI), 48 h
HOP-92 = tested on: HOP-92
KM12 = tested on: KM12
RXF 631 = tested on: RXF 631
UO-31 = tested on: UO-31
OVCAR-3 = tested on: OVCAR-3
SK-MEL-28 = tested on: SK-MEL-28
SK-OV-3 = tested on: SK-OV-3
786-0 = tested on: 786-0
NCI-H23 = tested on: NCI-H23
RPMI-8226 = tested on: RPMI-8226
HCC 2998 = tested on: HCC 2998
NCI-H522 = tested on: NCI-H522
UACC-62 = tested on: UACC-62
SF-268 = tested on: SF-268
TK-10 = tested on: TK-10
HT-29 = tested on: HT-29
SF-295 = tested on: SF-295
NCI/ADR-RES = tested on: NCI/ADR-RES
PC-3 = tested on: PC-3
Hs-578T = tested on: Hs-578T

Measured: GI50

CCN(CC)CCCC(C)NC(=O)c1ccc2c(c1)C(=O)c1ccccc1C2=O (stereo unspecified)
inactive: HOP-92 24.4 µM | KM12 15.4 µM | RXF 631 24.1 µM | UO-31 20.1 µM | OVCAR-3 7.74 µM | SK-MEL-28 17.9 µM | SK-OV-3 40.1 µM | 786-0 18.6 µM | NCI-H23 15.4 µM | RPMI-8226 18.7 µM | HCC 2998 18.1 µM | NCI-H522 18.9 µM | UACC-62 20.5 µM | SF-268 23.6 µM | TK-10 24.2 µM | HT-29 14 µM | SF-295 21.4 µM

OC1c2ccccc2C2C(O)c3ccccc3C12 (stereo unspecified)
inactive: HOP-92 > 100 µM | KM12 > 100 µM | RXF 631 > 100 µM | UO-31 > 100 µM | OVCAR-3 > 100 µM | SK-MEL-28 > 100 µM | SK-OV-3 > 100 µM | 786-0 > 100 µM | NCI-H23 > 100 µM | RPMI-8226 > 100 µM | HCC 2998 > 100 µM | NCI-H522 > 100 µM | UACC-62 > 100 µM | SF-268 > 100 µM | TK-10 > 100 µM | HT-29 > 100 µM | SF-295 > 100 µM

COc1cc(/C=N/N=C(\N)NO)c([N+](=O)[O-])cc1OC
inactive: HOP-92 29.2 µM | KM12 44.4 µM | RXF 631 26.7 µM | UO-31 35.7 µM | OVCAR-3 34 µM | SK-MEL-28 > 100 µM | SK-OV-3 23.3 µM | 786-0 29.9 µM | NCI-H23 32.4 µM | RPMI-8226 73.8 µM | HCC 2998 24.2 µM | NCI-H522 13.3 µM | UACC-62 20.6 µM | SF-268 25.2 µM | TK-10 69.3 µM | HT-29 30.1 µM | SF-295 30.6 µM

OCC(O)C(O)C(O)C1SC(c2ccccc2)=NN1c1ccccc1 (stereo unspecified)
inactive: HOP-92 27 µM | KM12 > 100 µM | NCI/ADR-RES > 70.1 µM | RXF 631 49.3 µM | UO-31 66.2 µM | OVCAR-3 > 68.9 µM | SK-MEL-28 > 81.5 µM | SK-OV-3 36.9 µM | 786-0 37 µM | NCI-H23 45.7 µM | RPMI-8226 > 86.3 µM | HCC 2998 > 100 µM | PC-3 > 57.5 µM | NCI-H522 33 µM | UACC-62 47 µM | SF-268 24.6 µM | Hs-578T 35.1 µM | TK-10 61.9 µM | HT-29 > 92 µM | SF-295 35.1 µM
